This is an account of results in patent publication US10703755B2, “Substituted purine derivative” (SUMITOMO DAINIPPON PHARMA CO., LTD., priority 2016, dated 2020).

In general, IC50 refers to the point on the concentration scale where inhibition reaches its midpoint. A lower IC50 goes with inhibition by little substance.

This assay deals with human TLR7 (Homo sapiens (Human), UniProt Q9NYK1). Kind of assay: Test for evaluating the inhibition of the activation of human TLR7 (SEAP reporter, TLR7/NF-κB/SEAPorter HEK293 cell). Particulars: R-848 200 nmol/L; for IC50: SEAP reporter; for inhibitory effect against TLR7 in the test for evaluating inhibition of the activation of TLR7: SEAP activity, result in words. The assay is classed as cell-based. In short, it runs like this: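 HEK293 cells stably expressing full-length human TLR7 and an NF-κB-driven SEAP reporter. They were grown in DMEM with 10% FBS and blasticidin, and seeded at 5×10^4 cells/well overnight at 37° C, 5% CO2. Inhibition of TLR7 activation was read as SEAP output.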
Chain of human TLR7 (Q9NYK1 27-1049): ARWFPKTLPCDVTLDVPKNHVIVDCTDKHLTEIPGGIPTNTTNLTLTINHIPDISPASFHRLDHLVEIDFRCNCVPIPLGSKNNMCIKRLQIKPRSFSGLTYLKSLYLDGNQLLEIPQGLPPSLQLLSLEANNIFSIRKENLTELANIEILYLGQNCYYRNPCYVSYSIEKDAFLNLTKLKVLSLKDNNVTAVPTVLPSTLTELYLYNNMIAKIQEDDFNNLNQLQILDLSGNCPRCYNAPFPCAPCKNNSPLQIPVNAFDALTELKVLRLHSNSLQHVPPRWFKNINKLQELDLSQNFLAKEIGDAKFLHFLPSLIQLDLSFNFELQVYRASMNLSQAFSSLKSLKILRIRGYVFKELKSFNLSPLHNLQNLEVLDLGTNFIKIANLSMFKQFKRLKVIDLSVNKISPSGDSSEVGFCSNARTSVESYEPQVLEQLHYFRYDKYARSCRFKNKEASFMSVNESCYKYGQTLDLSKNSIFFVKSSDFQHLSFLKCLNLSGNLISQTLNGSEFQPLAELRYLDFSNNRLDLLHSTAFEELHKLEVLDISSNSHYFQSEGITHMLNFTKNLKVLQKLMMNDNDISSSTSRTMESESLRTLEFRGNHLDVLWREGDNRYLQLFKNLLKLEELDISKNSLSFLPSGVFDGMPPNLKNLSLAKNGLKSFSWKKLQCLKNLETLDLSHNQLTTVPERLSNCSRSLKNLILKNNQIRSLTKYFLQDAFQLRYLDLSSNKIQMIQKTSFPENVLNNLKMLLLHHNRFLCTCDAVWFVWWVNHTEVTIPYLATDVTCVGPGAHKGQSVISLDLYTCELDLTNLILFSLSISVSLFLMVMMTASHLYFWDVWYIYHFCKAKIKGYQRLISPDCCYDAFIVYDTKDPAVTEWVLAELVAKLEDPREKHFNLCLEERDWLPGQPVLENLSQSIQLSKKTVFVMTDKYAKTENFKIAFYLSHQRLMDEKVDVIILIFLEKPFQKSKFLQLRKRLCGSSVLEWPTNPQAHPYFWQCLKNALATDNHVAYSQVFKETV

Structures are written as SMILES.

In the case of `COc1nc(C)c2nc(-c3cncc(F)c3)n(Cc3ccc(C4CN5CCC4CC5)cn3)c2n1` (stereo not drawn) [Example 371], it took 264 nM to reach half-maximal inhibition (IC50).

Take `CCOc1nc(C)c2nc(-c3cncc(F)c3)n(Cc3ccc(C4CN5CCC4CC5)cc3OC)c2n1` (stereo not drawn) [Example 372, 9-[4-(1-azabicyclo[2.2.2]oct-3-yl)-2-methoxybenzyl]-2-ethoxy-8-(5-fluoropyridin-3-yl)-6-methyl-9H-purine]: the “inhibitory effect against TLR7 in the test for evaluating inhibition of the activation of TLR7” value (“inhibitory effect against TLR7” for short) is given as “potent inhibitory effect against TLR7” and the IC50 worked out at 11 nM. Consider `CCOc1nc(C)c2nc(-c3cncc(F)c3)n(Cc3ccccc3OC)c2n1` [Example 373], for which the IC50 was 209 nM. Still for that read-out and setting: then `CCOc1nc(C)c2nc(-c3cncc(F)c3)n(Cc3cnc(C4CN5CCC4CC5)cc3OC)c2n1` (stereo not drawn) [Example 374], with 1630 nM; and `CCOc1nc(C)c2nc(-c3cncc(F)c3)n(Cc3cnc(C4CCN(C)CC4)cc3OC)c2n1` [Example 375], with 199 nM. Regarding `CCOc1nc(C)c2nc(-c3cncc(F)c3)n(Cc3ccc(C4CN5CCC4CC5)cc3OCC)c2n1` (stereo not drawn) [Example 376], the “inhibitory effect against TLR7” value is on record as “potent inhibitory effect against TLR7” and the IC50 stood at 84 nM. For `COc1nc(C)c2nc(-c3cncc(F)c3)n(Cc3ccc(C4CN5CCC4CC5)c(F)c3)c2n1` (stereo not drawn) [Example 377, 9-[4-(1-azabicyclo[2.2.2]oct-3-yl)-3-fluorobenzyl]-8-(5-fluoropyridin-3-yl)-2-methoxy-6-methyl-9H-purine], the “inhibitory effect against TLR7” value is recorded as “potent inhibitory effect against TLR7” and it took 7 nM to reach half-maximal inhibition (IC50). `CCOc1nc(C)c2nc(-c3cncc(F)c3)n(Cc3ncc(C4CN5CCC4CC5)cc3F)c2n1` (stereo not drawn) [Example 379] showed an IC50 of 506 nM. `COc1nc(C)c2nc(-c3cccnc3)n(Cc3ccc(C4CN5CCC4CC5)c(F)c3)c2n1` (stereo not drawn) [Example 380] came in with an IC50 of 225 nM. Compound `CCOc1nc(C)c2nc(-c3cncc(F)c3)n(Cc3ccc(C4CN5CCC4CC5)nc3C(F)(F)F)c2n1` (stereo not drawn) [Example 381] registered an IC50 of 1390 nM. This IC50 lies about 6.2-fold higher than the previous one. `CCOc1nc(C)c2nc(-c3cncc(F)c3)n(Cc3ccc(C4CN5CCC4CC5)nc3C#N)c2n1` (stereo not drawn) [Example 382]: half-maximal inhibition (IC50) was put at 575 nM. With `CCOc1nc(C)c2nc(-c3cncc(F)c3)n(Cc3cnc(C4CN5CCC4CC5)c(F)c3)c2n1` (stereo not drawn) [Example 383], the “inhibitory effect against TLR7” value is reported as “potent inhibitory effect against TLR7” and the IC50 was 83 nM. For the compound `CCOc1nc(C)c2nc(-c3cncc(F)c3)n(Cc3ccc(C4CN5CCC4CC5)cc3C#N)c2n1` (stereo not drawn) [Example 384], the half-inhibitory concentration (IC50) was 270 nM. In the case of `COc1nc(C)c2nc(-c3cncc(F)c3)n(Cc3ccc(C4CCN(C(=O)OC(C)(C)C)CC4)cc3F)c2n1` [Example 385], the IC50 came out at 94 nM.

With `COc1nc(C)c2nc(-c3cncc(F)c3)n(Cc3cccc(C4CN5CCC4CC5)c3)c2n1` (stereo not drawn) [Example 386, 9-[3-(1-azabicyclo[2.2.2]oct-3-yl)benzyl]-8-(5-fluoropyridin-3-yl)-2-methoxy-6-methyl-9H-purine], the “inhibitory effect against TLR7” value was “potent inhibitory effect against TLR7” and the IC50 was 13 nM. For the compound `Cc1nc(O)nc2c1nc(-c1cncc(F)c1)n2Cc1ccc(C2CN3CCC2CC3)cc1` (stereo not drawn) [Example 388, 9-[4-(1-Azabicyclo[2.2.2]oct-3-yl)benzyl]-8-(5-fluoropyridin-3-yl)-6-methyl-9H-purin-2-ol], half-maximal inhibition (IC50) was put at 1350 nM.

Compound `Cc1nc(O)nc2c1nc(-c1cncc(F)c1)n2Cc1ccc(C2CN3CCC2CC3)cc1F` (stereo not drawn) [Example 389] showed an IC50 of 2040 nM. Compared with the last compound, the IC50 is about 1.5-fold higher. For the compound `COc1nc(C)c2nc(-c3cncc(F)c3)n(Cc3ccc(C4CN5CCC4CC5)cc3F)c2n1` (stereo not drawn) [Example 392, 9-[4-(1-azabicyclo[2.2.2]oct-3-yl)-2-fluorobenzyl]-8-(5-fluoropyridin-3-yl)-2-methoxy-6-methyl-9H-purine], the “inhibitory effect against TLR7” value is recorded as “potent inhibitory effect against TLR7”. As to `COc1nc(C)c2nc(-c3cncc(F)c3)n(Cc3ccc(C4CN5CCC4CC5)cc3F)c2n1` (stereo not drawn) [Example 393, 9-[4-(1-azabicyclo[2.2.2]oct-3-yl)-2-fluorobenzyl]-8-(5-fluoropyridin-3-yl)-2-methoxy-6-methyl-9H-purine], the “inhibitory effect against TLR7” value is “potent inhibitory effect against TLR7”. For the compound `COc1nc(C)c2nc(-c3cncc(F)c3)n(Cc3ccc(O)cc3F)c2n1` [Example 404, 3-Fluoro-4-{[8-(5-fluoropyridin-3-yl)-2-methoxy-6-methyl-9H-purin-9-yl]methyl}phenol], the IC50 stood at 846 nM. This counts as sub-micromolar.

On to `COc1ccc(Cn2c(-c3cncc(F)c3)nc3c(C)nc(OC)nc32)c(F)c1` [Example 405, 9-(2-fluoro-4-methoxybenzyl)-8-(5-fluoropyridin-3-yl)-2-methoxy-6-methyl-9H-purine], for which the IC50 is 3410 nM. On to `COc1nc(C)c2nc(-c3cncc(F)c3)n(Cc3ccc(OC4CCN(C)CC4)cc3F)c2n1` [Example 411, 9-{2-fluoro-4-[(1-methylpiperidin-4-yl)oxy]benzyl}-8-(5-fluoropyridin-3-yl)-2-methoxy-6-methyl-9H-purine], for which the “inhibitory effect against TLR7” value is given as “potent inhibitory effect against TLR7” and the IC50 stood at 26 nM. In the case of `COc1nc(C)c2nc(-c3cncc(F)c3)n(Cc3ccc(O[C@@H]4CN5CCC4CC5)cc3F)c2n1` [Example 412, 9-{4-[(3S)-1-azabicyclo[2.2.2]oct-3-yloxy]-2-fluorobenzyl}-8-(5-fluoropyridin-3-yl)-2-methoxy-6-methyl-9H-purine], the “inhibitory effect against TLR7” value is recorded as “potent inhibitory effect against TLR7” and 5 nM corresponded to half-maximal inhibition (IC50). As for `COc1nc(C)c2nc(-c3cncc(F)c3)n(Cc3ccc(O[C@H]4CN5CCC4CC5)cc3F)c2n1` [Example 413, 9-{4-[(3R)-1-azabicyclo[2.2.2]oct-3-yloxy]-2-fluorobenzyl}-8-(5-fluoropyridin-3-yl)-2-methoxy-6-methyl-9H-purine], the “inhibitory effect against TLR7” value is reported as “potent inhibitory effect against TLR7” and 9 nM corresponded to half-maximal inhibition (IC50). Consider `COc1nc(C)c2nc(-c3cncc(F)c3)n(Cc3ccc(O[C@H]4CCN(C)C4)cc3F)c2n1` [Example 414, 9-(2-fluoro-4-{[(3S)-1-methylpyrrolidin-3-yl]oxy}benzyl)-8-(5-fluoropyridin-3-yl)-2-methoxy-6-methyl-9H-purine], for which the “inhibitory effect against TLR7” value is “potent inhibitory effect against TLR7” and the IC50 is 16 nM. Regarding `COc1nc(C)c2nc(-c3cncc(F)c3)n(Cc3ccc(O[C@@H]4CCN(C)C4)cc3F)c2n1` [Example 415, 9-(2-fluoro-4-{[(3R)-1-methylpyrrolidin-3-yl]oxy}benzyl)-8-(5-fluoropyridin-3-yl)-2-methoxy-6-methyl-9H-purine], the “inhibitory effect against TLR7” value is “potent inhibitory effect against TLR7” and the IC50 was 16 nM.

Consider `COc1nc(C)c2nc(-c3cncc(F)c3)n(Cc3ccc(OC4CN(C)C4)cc3F)c2n1` [Example 416, 9-{2-fluoro-4-[(1-methylazetidin-3-yl)oxy]benzyl}-8-(5-fluoropyridin-3-yl)-2-methoxy-6-methyl-9H-purine], for which the “inhibitory effect against TLR7” value is recorded as “potent inhibitory effect against TLR7” and half-maximal inhibition (IC50) required 50 nM. As for `COc1nc(C)c2nc(-c3cncc(F)c3)n(Cc3ccc(O[C@@H]4C[C@H]5CC[C@@H](C4)N5C)cc3F)c2n1` [Example 418, 9-(2-fluoro-4-{[(3-exo)-8-methyl-8-azabicyclo[3.2.1]oct-3-yl]oxy}benzyl)-8-(5-fluoropyridin-3-yl)-2-methoxy-6-methyl-9H-purine], the “inhibitory effect against TLR7” value is recorded as “potent inhibitory effect against TLR7” and it took 19 nM to reach half-maximal inhibition (IC50). As for `COc1nc(C)c2nc(-c3cncc(F)c3)n(Cc3ccc(OCC4CN(C(=O)OC(C)(C)C)C4)cc3F)c2n1` [Example 419], the midpoint of inhibition, the IC50, lay at 712 nM. As to `COc1nc(C)c2nc(-c3cncc(F)c3)n(Cc3ccc(OCCN(C)C)cc3F)c2n1` [Example 420], the IC50 was 139 nM. In the case of `COc1nc(C)c2nc(-c3cncc(F)c3)n(Cc3ccc(OCCCN(C)C)cc3F)c2n1` [Example 421], the “inhibitory effect against TLR7” value is given as “potent inhibitory effect against TLR7” and the IC50 was 73 nM. On to `CCOc1nc(C)c2nc(-c3cncc(F)c3)n(Cc3cnn(CC4CNCCO4)c3)c2n1` (stereo not drawn) [Example 424], for which the IC50 came to 100 nM. Same read-out and setting: in the case of `CCOc1nc(C)c2nc(-c3cncc(F)c3)n(Cc3cnn(CC4CNCCO4)c3)c2n1` (stereo not drawn) [Example 425] it was 93 nM; in that of `CCOc1nc(C)c2nc(-c3cncc(F)c3)n(Cc3cnn(CC4COCCN4)c3)c2n1` (stereo not drawn) [Example 426], 200 nM. With `CCOc1nc(C)c2nc(-c3cncc(F)c3)n(Cc3cnn(CC4COCCN4)c3)c2n1` (stereo not drawn) [Example 427], the IC50 was determined as 28 nM. As for `CCOc1nc(C)c2nc(-c3cncc(F)c3)n(Cc3cnn(CC4CCNCC4)c3)c2n1` [Example 428], the midpoint of inhibition, the IC50, lay at 210 nM. For `CCOc1nc(C)c2nc(-c3cncc(F)c3)n(Cc3cnc(CC4CCNCC4)cc3OC)c2n1` [Example 430], the IC50 came out at 549 nM.

`COc1nc(C)c2nc(-c3cncc(F)c3)n(Cc3ccc(C4CCNCC4)cc3F)c2n1` [Example 431]: the “inhibitory effect against TLR7” value was “potent inhibitory effect against TLR7” and the IC50 turned out to be 8 nM.

Turning to `COc1nc(C)c2nc(-c3cncc(F)c3)n(Cc3ccc(CC4CCNCC4)cc3F)c2n1` [Example 432], the “inhibitory effect against TLR7” value was “potent inhibitory effect against TLR7” and half-maximal inhibition (IC50) was put at 62 nM.
